Test [1] deals with T1, Inosine-5'-monophosphate dehydrogenase (Bacillus anthracis, UniProt A0A6L8P2U9). Description: Non-competitive inhibition of Bacillus anthracis IMPDH preincubated for 10 mins before NAD+ substrate addition by spectrophotometry.
The target of test [2] is T2, Inosine-5'-monophosphate dehydrogenase (Cryptosporidium parvum, UniProt Q8T6T2).
T2 sequence (Q8T6T2 whole entry): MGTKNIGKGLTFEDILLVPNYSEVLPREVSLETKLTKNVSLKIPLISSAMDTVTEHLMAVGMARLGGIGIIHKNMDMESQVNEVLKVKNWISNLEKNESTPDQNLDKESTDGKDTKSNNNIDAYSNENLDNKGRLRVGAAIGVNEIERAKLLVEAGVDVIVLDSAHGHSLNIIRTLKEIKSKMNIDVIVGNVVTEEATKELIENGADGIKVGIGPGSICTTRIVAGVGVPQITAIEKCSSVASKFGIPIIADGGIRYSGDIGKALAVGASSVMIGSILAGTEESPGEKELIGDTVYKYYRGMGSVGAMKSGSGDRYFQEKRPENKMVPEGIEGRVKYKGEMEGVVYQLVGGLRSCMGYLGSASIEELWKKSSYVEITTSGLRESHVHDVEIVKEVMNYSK
Description: Non-competitive inhibition of Cryptosporidium IMPDH preincubated for 10 mins before NAD+ substrate addition by spectrophotometry.

In test [3] the target is T1, Inosine-5'-monophosphate dehydrogenase. Description: Non-competitive inhibition of Bacillus anthracis IMPDH preincubated for 10 mins before IMP substrate addition by spectrophotometry.
In test [4] the target is T2, Inosine-5'-monophosphate dehydrogenase. Description: Un-competitive inhibition of Cryptosporidium IMPDH preincubated for 10 mins before IMP substrate addition by spectrophotometry.
Test [5] has the same target. Description: Inhibition of Cryptosporidium IMPDH preincubated for 10 mins before substrate addition by spectrophotometry.
Test [6] can be described thus: Selectivity ratio of IC50 for Bacillus anthracis IMPDH to IC50 for Cryptosporidium IMPDH.
Test [7] has as its target T2, Inosine-5'-monophosphate dehydrogenase. Description: Competitive inhibition of Cryptosporidium IMPDH preincubated for 10 mins before NAD+ substrate addition by spectrophotometry.
The target of test [8] is T1, Inosine-5'-monophosphate dehydrogenase. Description: Inhibition of Bacillus anthracis IMPDH preincubated for 10 mins before substrate addition by spectrophotometry.
Test [9] concerns Staphylococcus aureus. Description: Antibacterial activity against Staphylococcus aureus NCTC 8325 in presence of 0.01 % guanine. The test is classed as functional.
In test [10] the test system is Listeria monocytogenes. Description: Antibacterial activity against Listeria monocytogenes 10403S. The test is classed as functional.
The subject of test [11] is Staphylococcus aureus. Description: Antibacterial activity against Staphylococcus aureus ATCC 13709 Smith in presence of 0.01 % guanine. The format is functional.
The subject of test [12] is Staphylococcus aureus. Description: Ratio of MIC for Staphylococcus aureus NCTC 8325 in presence of 0.01 % guanine to MIC for Staphylococcus aureus NCTC 8325. The format is functional.
Test [13] deals with Listeria monocytogenes. Description: Ratio of MIC for Listeria monocytogenes 10403S in presence of 0.01 % guanine to MIC for Listeria monocytogenes 10403S. The format is functional.
The subject of test [14] is Staphylococcus aureus. Description: Antibacterial activity against Staphylococcus aureus NCTC 8325. The format is functional.
The test system of test [15] is Bacillus anthracis str. Sterne. Description: Ratio of MIC for Bacillus anthracis Sterne 7702 in presence of 0.01 % guanine to MIC for Bacillus anthracis Sterne 7702. The test is classed as functional.
Test [16] can be described thus: Antibacterial activity against Bacillus anthracis Sterne 7702. The test is classed as functional, Bacillus anthracis str. Sterne.
The test system of test [17] is Staphylococcus aureus. Description: Ratio of MIC for Staphylococcus aureus ATCC 13709 Smith in presence of 0.01 % guanine to MIC for Staphylococcus aureus ATCC 13709 Smith. The test is classed as functional.
The subject of test [18] is Staphylococcus aureus. Description: Antibacterial activity against Staphylococcus aureus ATCC 13709 Smith. The format is functional.
A short description of test [19]: Antibacterial activity against Bacillus anthracis Sterne 7702 in presence of 0.01 % guanine. The test is classed as functional, Bacillus anthracis str. Sterne.
Test [20] deals with Listeria monocytogenes. Description: Antibacterial activity against Listeria monocytogenes 10403S in presence of 0.01 % guanine. The test is classed as functional.

Converted amounts (≈) assume the structure as drawn. The source made the active and inactive calls. The calls are words filed in the database; no cut-off is given here.

T1 sequence (A0A6L8P2U9 whole entry): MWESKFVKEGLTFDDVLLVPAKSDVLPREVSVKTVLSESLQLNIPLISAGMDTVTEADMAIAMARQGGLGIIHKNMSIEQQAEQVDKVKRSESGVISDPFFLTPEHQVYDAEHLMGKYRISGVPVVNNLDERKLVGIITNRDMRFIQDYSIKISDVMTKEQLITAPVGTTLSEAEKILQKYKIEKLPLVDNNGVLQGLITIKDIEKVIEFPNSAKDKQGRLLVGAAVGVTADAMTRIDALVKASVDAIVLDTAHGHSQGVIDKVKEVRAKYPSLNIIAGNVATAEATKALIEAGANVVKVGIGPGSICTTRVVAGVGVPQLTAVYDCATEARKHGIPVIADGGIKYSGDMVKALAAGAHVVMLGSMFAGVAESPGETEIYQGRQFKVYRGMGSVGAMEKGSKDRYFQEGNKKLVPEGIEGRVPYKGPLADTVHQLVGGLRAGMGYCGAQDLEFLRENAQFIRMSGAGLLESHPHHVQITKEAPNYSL

What is called Ki is a measure of affinity in units of concentration, obtained from inhibition or displacement. A low value points to higher affinity. Take `Cn1nc(CC(=O)Nc2ccc3oc4c(c3c2)CCCC4)c2ccccc2c1=O`: the Ki in [1] was determined as 0.5 µM; in [2], 0.049 µM; in test [3], 0.012 µM; in test [4], 0.005 µM.

In general, IC50 refers to the midpoint of a concentration-inhibition curve. Lower therefore signals inhibition by little substance. On to `CC(Oc1ccc(-c2ccccc2)cc1)C(=O)Nc1ccc(Cl)cc1` (centres undefined), for which inhibition in test [5] was half-maximal at 1.1 µM (IC50). Also, in [6], the Ratio IC50 is under 0.5.

For `C[C@H](Oc1cccc2ccccc12)C(=O)Nc1ccc2oc(-c3ccncc3)nc2c1`, the Ki worked out at 0.017 µM in test [1], 0.013 µM in test [7], 0.024 µM in test [3] and 0.064 µM in [4].

For the compound `C[C@H](Oc1cccc(Cl)c1Cl)C(=O)Nc1ccc2oc(-c3ccncc3)nc2c1`, inhibition in test [8] was half-maximal at 0.01 µM (IC50). In addition, the Ratio IC50 in test [6] was under 0.5.

Consider `C[C@H](Nc1cccc(Cl)c1Cl)C(=O)Nc1ccc2oc(-c3ccncc3)nc2c1`, for which, in [8], the IC50 worked out at 0.005 µM. Further, in [6], the Ratio IC50 is under 0.5.

Turning to `O=C(Cn1c(-c2ccccn2)nc2ccccc21)Nc1ccc2ccccc2c1`, the Ki in test [1] amounted to 0.044 µM; in test [2] it was 0.014 µM; in test [3], 0.82 µM; in [4], 0.013 µM.

By MIC is commonly meant the lowest concentration that inhibits growth of the organism. On to `CCN(CC)C(=O)c1ccc(NC(=O)NC(C)(C)c2cccc(/C(C)=N/O)c2)cc1Cl`, for which the MIC in the test with Staphylococcus aureus [9] was over 30 µM; with Listeria monocytogenes [10], 15 µM (≈ 6.67 µg/mL); in the test with Staphylococcus aureus [11], over 30 µM; against Staphylococcus aureus [14] it was 0.9 µM (≈ 0.4 µg/mL); in test [16], 0.5 µM (≈ 0.222 µg/mL); in the test with Staphylococcus aureus [18] it was 4 µM (≈ 1.78 µg/mL). For the same compound, the MIC in [19] is over 30 µM. In addition, the Ratio (with Staphylococcus aureus [12]; in the test with Listeria monocytogenes [13]; in test [15]; with Staphylococcus aureus [17]) was 8 in each case.

As to `C/C(=N\O)c1cccc(C(C)(C)NC(=O)Nc2ccc(Cl)c(C(F)(F)F)c2)c1`, the half-maximal inhibitory concentration (IC50) in test [8] was 0.002 µM. The Ratio IC50 in [6] is under 0.5.

As for `C[C@@H](Oc1cc[n+]([O-])c2ccccc12)c1cn(-c2ccc(Cl)cc2)nn1`, the MIC in the test with Staphylococcus aureus [9] was over 30 µM; in the test on Listeria monocytogenes [10], 7.5 µM (≈ 2.75 µg/mL); in the test with Staphylococcus aureus [11], 16 µM; in the test with Staphylococcus aureus [14], 1.8 µM (≈ 0.66 µg/mL); in [16] it was 1 µM (≈ 0.367 µg/mL); with Staphylococcus aureus [18], 2 µM (≈ 0.734 µg/mL). The MIC in test [19] is 8 µM. Moreover, the Ki in test [1] amounted to 0.058 µM; in [7], 0.005 µM; in test [3], 0.038 µM; in test [4] it was 0.005 µM. For the same compound, the Ratio (in the test on Staphylococcus aureus [12]; in the test on Listeria monocytogenes [13]; in [15]; with Staphylococcus aureus [17]) was 8 in each case. Also, the MIC entry in the test with Listeria monocytogenes [20] is “inactive”.

`C/C(=N\O)c1cccc(C(C)(C)NC(=O)Nc2ccc(Cl)c(C(=O)N3CCN(C)CC3)c2)c1`: 0.33 µM corresponded to half-maximal inhibition in test [5] (IC50). For the same compound, the Ratio IC50 in [6] is under 0.5.

Take `O=C(COc1cccc2ccccc12)Nc1ccc(Br)cc1`: the IC50 in test [8] is 0.76 µM; in test [5], over 5 µM. In test [6], the Ratio IC50 was under 0.5.

`C[C@@H](Oc1cccc2cnccc12)c1cn(-c2ccc(Cl)cc2)nn1`: the MIC is over 30 µM with Staphylococcus aureus [9]; 3.8 µM (≈ 1.33 µg/mL) with Listeria monocytogenes [10]; over 30 µM in the test on Staphylococcus aureus [11]; 7.5 µM (≈ 2.63 µg/mL) against Staphylococcus aureus [14]; 2 µM (≈ 0.702 µg/mL) in [16]; 8 µM (≈ 2.81 µg/mL) in the test with Staphylococcus aureus [18]. For the same compound, the MIC in test [19] is over 30 µM. Further, the Ratio (in the test on Staphylococcus aureus [12]; with Listeria monocytogenes [13]; in test [15]; with Staphylococcus aureus [17]) was 8 throughout.

For the compound `CC(C)C(Oc1cccc2ccccc12)C(=O)Nc1ccc(Cl)cc1` (centres undefined), the IC50 in test [8] is 0.12 µM; in [5], 0.7 µM. Further, the Ratio IC50 in [6] is under 0.5.

On to `C/C(=N\O)c1cccc(C(C)(C)NC(=O)Nc2ccc(Br)cc2)c1`, for which the Ki in test [1] was found to be 0.0023 µM; in test [2], 0.015 µM; in test [3], 0.048 µM; in test [4], 0.012 µM. This compound also returned an IC50 in test [5] of 0.009 µM. For the same compound, the Ratio IC50 in test [6] was under 0.5.

As for `O=C(Nc1ccc(Cl)cc1)C(Oc1cccc2ccccc12)c1ccccc1` (centres undefined), the IC50 in test [8] is 2.4 µM; in test [5], over 5 µM. Moreover, the Ratio IC50 in test [6] is under 0.5.

Take `C[C@H](Oc1cccc(Cl)c1Cl)C(=O)Nc1cccc(NC(=O)c2ccncc2)c1`: in test [8], the IC50 was determined as 0.3 µM. Further, the Ratio IC50 in test [6] is under 0.5.

For `C/C(=N\O)c1cccc(C(C)(C)NC(=O)Nc2ccc(Cl)c(C(N)=O)c2)c1`, the Ki in test [1] was found to be 0.008 µM; in test [2] it was 0.006 µM; in [3] it was 0.0015 µM; in [4], 0.002 µM.

Turning to `C/C(=N\O)c1cccc(C(C)(C)NC(=O)Nc2ccc(Cl)c(C(=O)N3CCOCC3)c2)c1`, the minimum inhibitory concentration (MIC) was 7.5 µM with Staphylococcus aureus [9]; over 30 µM against Listeria monocytogenes [10]; over 30 µM in the test with Staphylococcus aureus [11]; 3.8 µM (≈ 1.74 µg/mL) in the test on Staphylococcus aureus [14]; 2 µM (≈ 0.918 µg/mL) against Staphylococcus aureus [18]. Further, the Ratio with Staphylococcus aureus [12], in the test with Listeria monocytogenes [13] and with Staphylococcus aureus [17] was 8 each time.

On to `C[C@H](Oc1cccc(Cl)c1Cl)C(=O)Nc1ccc2nc(-c3ccncc3)oc2c1`, for which the midpoint of inhibition in test [8], the IC50, lay at 0.01 µM. Moreover, the Ratio IC50 in [6] is under 0.5.

For the compound `O=C(Nc1ccc(Cl)cc1)C(Oc1cccc2ccccc12)C1CC1` (centres undefined), the IC50 in test [5] was over 5 µM. The Ratio IC50 in test [6] was under 0.5.

On to `CC(Oc1cccc([N+](=O)[O-])c1Cl)C(=O)Nc1ccc2oc(-c3ccncc3)nc2c1` (centres undefined), for which the IC50 in [8] was determined as 0.014 µM; in test [5] it was 0.049 µM. Also, in test [6], the Ratio IC50 is under 0.5.

In the case of `CC(=O)c1cccc(CNC(=O)Nc2ccc(Cl)cc2)c1`, the IC50 in test [8] is 1.2 µM; in test [5], over 5 µM. Moreover, the Ratio IC50 in test [6] was under 0.5.

With `C=C(C)c1cccc(C(C)(C)NC(=O)Nc2ccc(Cl)c(C(F)(F)F)c2)c1`, the Ratio IC50 in [6] was under 0.5.

In the case of `C[C@H](C(=O)Nc1ccc2oc(-c3ccncc3)nc2c1)c1ccccc1`, the Ratio IC50 in [6] is under 0.5.

For `C/C(=N\O)c1cccc(C(C)(C)NC(=O)Nc2ccc(Cl)c(Cl)c2)c1`, the IC50 stood at 0.095 µM in test [8] and 0.19 µM in test [5]. For the same compound, the Ratio IC50 in test [6] was under 0.5.

Source of the values: ChEMBL document CHEMBL3351409, “Repurposing cryptosporidium inosine 5'-monophosphate dehydrogenase inhibitors as potential antibacterial agents” (ACS Med Chem Lett, 2014).
